Each molecule was assayed against T1, KRAS G12C (GMPPNP-loaded) and cRAF Ras-binding domain (Homo sapiens, UniProt P01116, C118S/C51S/C80L/G12C) (assay: Inhibition of KRAS G12C and cRAF binding (AlphaScreen)). Conditions: KRAS G12C preloaded with GTP analogue GMPPNP, 2 hours preincubation.
T1 construct: truncated version comprising amino acids 1-169
How it was run: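 Compounds (10-point, 1:3 from 50 μM; 2% DMSO) were incubated 2 h at room temperature with 0.5 nM GMPPNP-preloaded truncated Cys-light KRAS G12C, then 60-90 min with 0.75 nM GST-RBD of cRAF and AlphaScreen beads. Signal at 570 nm gave IC50 by 4-parameter regression, and a biotin-AviTag-GST counter assay excluded interference with the AlphaScreen readout.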

T1 sequence (P01116 1-169 isoform P01116-2 G12C/C51S/C80L/C118S): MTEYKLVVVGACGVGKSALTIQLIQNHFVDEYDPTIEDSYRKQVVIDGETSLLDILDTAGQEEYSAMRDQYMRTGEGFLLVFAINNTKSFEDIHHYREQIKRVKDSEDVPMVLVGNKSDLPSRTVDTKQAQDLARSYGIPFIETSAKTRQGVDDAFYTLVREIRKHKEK

Row | Structure (SMILES) | IC50
1 | C=CC(=O)N1CC[C@@H](N(C)c2nc(OCC34CCCN3CCC4)nc3c2CC(C)C(c2nc(N)cc(C)c2C(F)(F)F)C3)C1 (stereo partly shown) [Example 98] | 100 to 500 nM
2 | C=CC(=O)N1CC[C@@H](N(C)c2nc(OCC34CCCN3CCC4)nc3c(F)c(-c4nc(N)cc5cccc(Cl)c45)ncc23)C1 [Example 69, (R)-1-(3-((7-(3-amino-8-chloroisoquinolin-1-yl)-8-fluoro-2-((hexahydro-1H-pyrrolizin-7a-yl)methoxy)pyrido[4,3-d]pyrimidin-4-yl)(methyl)amino)pyrrolidin-1-yl)prop-2-en-1-one] | 100 to 500 nM
3 | C=CC(=O)N1CC[C@@H](N(C)c2nc(OC[C@@]34CCCN3C[C@H](F)C4)nc3c(F)c(-c4cccc(C(F)(F)F)c4C4CC4)ncc23)C1 [Example 198] | ≥ 500 nM
4 | C=CC(=O)N1CC[C@@H](N(C)c2nc(OC[C@@]34CCCN3C[C@H](F)C4)nc3c(F)c(-c4cc(F)cc(F)c4C4CC4)ncc23)C1 [Example 249] | ≥ 500 nM
5 | C=CC(=O)N1CC(CN(C)c2nc(OC[C@@]34CCCN3C[C@H](F)C4)nc3c2C[C@H](C)[C@@H](c2nc(N)cc(C)c2C(F)(F)F)C3)C1 [Example 137, 1-(3-((((6S,7S)-7-(6-amino-4-methyl-3-(trifluoromethyl)pyridin-2-yl)-2-(((2R,7aS)-2-fluorotetrahydro-1H-pyrrolizin-7a(5H)-yl)methoxy)-6-methyl-5,6,7,8-tetrahydroquinazolin-4-yl)(methyl)amino)methyl)azetidin-1-yl)prop-2-en-1-one] | ≥ 500 nM
6 | C=CC(=O)N1CC[C@@H](N(C)c2nc(OC[C@@]34CCCN3C[C@H](F)C4)nc3c2C[C@H](C)[C@@H](c2nc(N)cc(C)c2C(F)(F)F)C3)C1 [Example 145, 1-((R)-3-(((6S,7S)-7-(6-amino-4-methyl-3-(trifluoromethyl)pyridin-2-yl)-2-(((2R,7aS)-2-fluorotetrahydro-1H-pyrrolizin-7a(5H)-yl)methoxy)-6-methyl-5,6,7,8-tetrahydroquinazolin-4-yl)(methyl)amino)pyrrolidin-1-yl)prop-2-en-1-one] | ≥ 500 nM
7 | C=CC(=O)N1CC[C@@H](N(C)c2nc(OC[C@@]34CCCN3C[C@H](F)C4)nc3c(F)c(-c4nc(N)ccc4C(F)(F)F)ncc23)C1 [Example 46, 1-((R)-3-((7-(6-amino-3-(trifluoromethyl)pyridin-2-yl)-8-fluoro-2-(((2R,7aS)-2-fluorotetrahydro-1H-pyrrolizin-7a(5H)-yl)methoxy)pyrido[4,3-d]pyrimidin-4-yl)(methyl)amino)pyrrolidin-1-yl)prop-2-en-1-one] | 100 to 500 nM
8 | Cc1nsc(/C=C/C(=O)N2CC(CN(C)c3nc(OC[C@@]45CCCN4C[C@H](F)C5)nc4c3C[C@H](C)[C@@H](c3nc(N)cc(C)c3C(F)(F)F)C4)C2)n1 (single isomer, unassigned) [Example 174] | ≥ 500 nM
9 | Cc1cc(N)nc(-c2ncc3c(N(C)CC4CN(C(=O)/C=C/c5nc(C(C)C)no5)C4)nc(OC[C@@]45CCCN4C[C@H](F)C5)nc3c2F)c1C1CC1 [Example 175] | 100 to 500 nM
10 | C=CC(=O)N1CC[C@@H](N(C)c2nc(OC[C@@]34CCCN3C[C@H](F)C4)nc3c(F)c(-c4c[nH]nc4C(F)(F)F)ncc23)C1 [Example 196] | ≥ 500 nM
11 | C=CC(=O)N1CC[C@@H](N(C)c2nc(OC[C@@]34CCCN3C[C@H](F)C4)nc3c2CCN(c2nc(N)cc(C)c2C(F)(F)F)C3)C1 [Example 111, 1-((R)-3-((7-(6-amino-4-methyl-3-(trifluoromethyl)pyridin-2-yl)-2-(((2R,7aS)-2-fluorotetrahydro-1H-pyrrolizin-7a(5H)-yl)methoxy)-5,6,7,8-tetrahydropyrido[3,4-d]pyrimidin-4-yl)(methyl)amino)pyrrolidin-1-yl)prop-2-en-1-one] | ≥ 500 nM
12 | C=CC(=O)N1CC(CN(C)c2nc(OC[C@@]34CCCN3C[C@H](F)C4)nc3c(F)c(-c4nc(N)ccc4C(F)(F)F)ncc23)C1 [Example 54, 1-(3-(((7-(6-amino-3-(trifluoromethyl)pyridin-2-yl)-8-fluoro-2-(((2R,7aS)-2-fluorohexahydro-1H-pyrrolizin-7a-yl)methoxy)pyrido[4,3-d]pyrimidin-4-yl)(methyl)amino)methyl)azetidin-1-yl)prop-2-en-1-one] | 100 to 500 nM
13 | Cc1cc(N)nc(-c2ncc3c(N(C)[C@@H]4C[C@@H](C)N(C#N)C4)nc(OC[C@@]45CCCN4C[C@H](F)C5)nc3c2F)c1C(F)(F)F (single isomer, unassigned) [Example 40] | 10 to 100 nM

Now from value to molecule:

Row | IC50 | Structure (SMILES)
14 | < 10 nM | Cc1noc(/C=C/C(=O)N2CC[C@@H](N(C)c3nc(OC[C@@]45CCCN4C[C@H](F)C5)nc4c3CC(C)C(c3nc(N)cc(C)c3C(F)(F)F)C4)C2)n1 (stereo partly drawn) [Example 65, (E)-1-((3R)-3-((7-(6-amino-4-methyl-3-(trifluoromethyl)pyridin-2-yl)-2-(((2R,7aS)-2-fluorohexahydro-1H-pyrrolizin-7a-yl)methoxy)-6-methyl-5,6,7,8-tetrahydroquinazolin-4-yl)(methyl)amino)pyrrolidin-1-yl)-3-(3-methyl-1,2,4-oxadiazol-5-yl)prop-2-en-1-one]
15 | 10 to 100 nM | Cc1cc(N)nc(-c2ncc3c(N4CCN(C#N)[C@@H](CC#N)C4)nc(OC[C@@]45CCCN4C[C@H](F)C5)nc3c2F)c1C(F)(F)F [Example 13, (S)-4-(7-(6-amino-4-methyl-3-(trifluoromethyl)pyridin-2-yl)-8-fluoro-2-(((2R,7aS)-2-fluorohexahydro-1H-pyrrolizin-7a-yl)methoxy)pyrido[4,3-d]pyrimidin-4-yl)-2-(cyanomethyl)piperazine-1-carbonitrile]
16 | 10 to 100 nM | C=CC(=O)N1CC[C@@H](N(C)c2nc(OC[C@@]34CCCN3C[C@H](F)C4)nc3c(F)c(-c4cccc(Cl)c4C(F)(F)F)ncc23)[C@H]1C [Example 217]
17 | < 10 nM | CN1CC[C@H]1/C=C/C(=O)N1CC[C@@H](N(C)c2nc(OC[C@@]34CCCN3C[C@H](F)C4)nc3c(F)c(-c4nc(N)cc5cccc(Cl)c45)ncc23)C1 (single isomer, unassigned) [Example 6]
18 | < 10 nM | Cc1cc(N)nc(-c2ncc3c(N(C)CC4CN(C(=O)/C=C/c5nc(C(C)C)no5)C4)nc(OC[C@@]45CCCN4C[C@H](F)C5)nc3c2F)c1C(F)(F)F [Example 153]
19 | 10 to 100 nM | Cc1cc(N)nc(-c2ncc3c(N(C)[C@@H]4CCN(C(=O)/C=C/c5nc(C(C)C)no5)C4)nc(OC[C@@]45CCCN4C[C@H](F)C5)nc3c2F)c1C [Example 53, (E)-1-((R)-3-((7-(6-amino-3,4-dimethylpyridin-2-yl)-8-fluoro-2-(((2R,7aS)-2-fluorotetrahydro-1H-pyrrolizin-7a(5H)-yl)methoxy)pyrido[4,3-d]pyrimidin-4-yl)(methyl)amino)pyrrolidin-1-yl)-3-(3-isopropyl-1,2,4-oxadiazol-5-yl)prop-2-en-1-one]
20 | < 10 nM | C=CC(=O)N1C[C@H](F)[C@@H](N(C)c2nc(OC[C@@]34CCCN3C[C@H](F)C4)nc3c(F)c(-c4cc(O)cc(Cl)c4C4CC4)ncc23)C1 [Example 243]
21 | 10 to 100 nM | Cc1ccc(N)nc1-c1ncc2c(N(C)[C@@H]3CCN(C(=O)/C=C/c4nc(C(C)C)no4)C3)nc(OC[C@@]34CCCN3C[C@H](F)C4)nc2c1F [Example 86]
22 | 10 to 100 nM | CC(C)c1noc(/C=C/C(=O)N2CC[C@@H](N(C)c3nc(OC[C@@]45CCCN4C[C@H](F)C5)nc4c(F)c(-c5nc(N)ccc5OC(F)F)ncc34)C2)n1 [Example 214]
